From PubChem BioAssay (NCI) come the findings set out here.

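48-hour exposure; five concentrations; linearly interpolated endpoints. At the GI50, growth is halved. TGI marks complete inhibition of growth.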 Where only a bound is given, the exact number is not on record here.

Test systems include UO-31 renal; SF-539 CNS; SR leukemia; SW-620 colon; SN12C renal; UACC-257 melanoma; SF-295 CNS; NCI-H522 lung; A549 NSCLC; SK-MEL-2 melanoma.
Holding throughout (test): NCI tumour cell line growth inhibition, 48 h

As for `CC1C(=O)N(c2ccccc2)NC12CCCc1ccccc12` (stereo not given), the TGI with UO-31 renal, with SF-539 CNS, in the test with SR leukemia, with SW-620 colon, in the test on SN12C renal and in the test on UACC-257 melanoma was over 100 µM in each case. Further, the TGI with SF-295 CNS, in the test on NCI-H522 lung, in the test with A549 NSCLC and in the test on SK-MEL-2 melanoma was over 100 µM throughout.

As for `Cc1cc(-c2nc3cc(F)ccc3s2)ccc1NC(=O)[C@@H](N)CCCCN`, the TGI with UO-31 renal worked out at 13.9 µM; with SF-539 CNS it was 9.73 µM; in the test with SR leukemia it was 3.52 µM; in the test on SW-620 colon, 6.04 µM; with SN12C renal it was 26 µM; with UACC-257 melanoma, 13.3 µM. The TGI was 9.62 µM in the test on SF-295 CNS, 21 µM with NCI-H522 lung, 3.88 µM in the test on A549 NSCLC and 8.76 µM in the test with SK-MEL-2 melanoma.

Regarding `CSCCC(N)C(=O)NCCNc1ccc(NCCNC(=O)C(N)CCSC)c2c1C(=O)c1ccccc1C2=O` (stereo not given), the TGI in the test with UO-31 renal was determined as 4.39 µM; with SF-539 CNS, 3.11 µM; in the test on SR leukemia, 2.85 µM; in the test on SW-620 colon, 3.83 µM; in the test with SN12C renal, 2.55 µM; in the test on UACC-257 melanoma it was 12.7 µM. Besides, the TGI in the test with SF-295 CNS stood at 10.7 µM; with NCI-H522 lung, 1.3 µM; with A549 NSCLC it was 3.66 µM; with SK-MEL-2 melanoma it was 7.59 µM.

Regarding `Cc1cc(F)ccc1S(=O)(=O)Nc1cc(-c2c(O)ccc3ccccc23)c(O)c2ccccc12`, the GI50 in the test with UO-31 renal is 2.38 µM; in the test on SF-539 CNS, 1.83 µM; in the test with SR leukemia, 3.21 µM; in the test on SW-620 colon, 2.48 µM; in the test with SN12C renal, 2.8 µM; in the test on UACC-257 melanoma it was 2.6 µM. Further, the GI50 in the test with SF-295 CNS is 3.02 µM; with NCI-H522 lung, 1.77 µM; in the test on A549 NSCLC, 3.76 µM; in the test with SK-MEL-2 melanoma, 2 µM. Besides, the TGI was 13.3 µM in the test with UO-31 renal; 3.59 µM in the test with SF-539 CNS; 19.3 µM in the test with SR leukemia; 11.8 µM in the test with SW-620 colon; 15.5 µM in the test on SN12C renal; 9.33 µM in the test with UACC-257 melanoma. The TGI was determined as 10.3 µM in the test on SF-295 CNS, 4.77 µM in the test on NCI-H522 lung, 15.5 µM in the test with A549 NSCLC and 5.73 µM with SK-MEL-2 melanoma.

For the compound `CC(NC(=O)C(NC(=O)CNC(=O)OC(C)(C)C)C(C)C)C(=O)Oc1c(Cl)c(Cl)c(Cl)c(Cl)c1Cl` (stereo not given), the TGI was 29.5 µM with UO-31 renal; 33.4 µM with SF-539 CNS; over 100 µM with SR leukemia; 60 µM in the test on SW-620 colon; 42 µM in the test on SN12C renal; 44.7 µM with UACC-257 melanoma. The TGI in the test with SF-295 CNS is 34.3 µM; in the test with NCI-H522 lung, 45.2 µM; in the test with A549 NSCLC, 57.5 µM; in the test with SK-MEL-2 melanoma, 30.3 µM.

Take `CSCSSC`: the TGI in the test on UO-31 renal, in the test on SF-539 CNS, in the test with SR leukemia, in the test on SW-620 colon, in the test with SN12C renal and in the test on UACC-257 melanoma was over 100 µM each time. In addition, the TGI in the test on SF-295 CNS, with NCI-H522 lung, with A549 NSCLC and in the test on SK-MEL-2 melanoma was over 100 µM throughout.

Turning to `CCCCCCCC/C=C\CCCCCCC/C=C1\C[C@](/C=C/C(=O)OC)(CO)OC1=O`, the TGI is 3.76 µM in the test with UO-31 renal; 3.82 µM with SF-539 CNS; over 23.5 µM in the test on SR leukemia; 3.78 µM in the test on SW-620 colon; 4.01 µM in the test on SN12C renal; 26.6 µM with UACC-257 melanoma. Also, the TGI was determined as 14.1 µM in the test on SF-295 CNS, 8.61 µM in the test on NCI-H522 lung, 17.8 µM in the test with A549 NSCLC and 23.9 µM in the test on SK-MEL-2 melanoma.

Consider `N#CC1(C#N)NC(c2cccs2)C(C#N)(C#N)NC1c1cccs1` (stereo not given), for which the TGI was over 100 µM in the test with UO-31 renal; 47.6 µM in the test on SF-539 CNS; 77.3 µM in the test on SR leukemia; over 100 µM with SW-620 colon; over 100 µM in the test on SN12C renal; over 100 µM with UACC-257 melanoma. For the same compound, the TGI is over 100 µM with SF-295 CNS, 88.4 µM in the test with NCI-H522 lung, over 100 µM in the test with A549 NSCLC and 50.5 µM in the test with SK-MEL-2 melanoma.

With `C=C[C@@H](C)[C@H](NS(=O)(=O)c1ccc(C)cc1)C(=O)OCC`, the TGI with UO-31 renal is 96.1 µM; in the test with SF-539 CNS it was over 100 µM; in the test on SR leukemia, over 100 µM; with SW-620 colon it was over 100 µM; in the test with SN12C renal, over 100 µM; in the test with UACC-257 melanoma it was 71.5 µM. The TGI was 63.4 µM in the test with SF-295 CNS, 57.5 µM in the test on NCI-H522 lung, over 100 µM in the test on A549 NSCLC and over 100 µM in the test with SK-MEL-2 melanoma.

With `Cc1ccc([S@](=O)c2occc2C=O)cc1`, the TGI was 23.2 µM in the test on UO-31 renal; 25.8 µM in the test on SF-539 CNS; 5.08 µM in the test with SR leukemia; 3.63 µM in the test with SW-620 colon; 27.7 µM with SN12C renal; 26.3 µM in the test with UACC-257 melanoma. For the same compound, the TGI came out at 32.4 µM in the test on SF-295 CNS, 31.6 µM with NCI-H522 lung, 46.5 µM with A549 NSCLC and 29.2 µM in the test on SK-MEL-2 melanoma.
